# In patent publication US20120132797A1, “MEANS AND METHODS FOR DIAGNOSING THYROID DISORDERS” (BASF SE, priority 2009, published 2012):
# Tested on: Wistar (Crl:WI(Han)) rats
# Test: Mass spectrometry-based plasma metabolite profiling of rats treated with known inducers of thyroid function impairment
# Format: in vivo, rat
# Details: ratio of group medians vs controls
# Procedure, shortened: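 Rats aged 10-11 weeks, 5/sex/dose vs 10/sex controls, dosed at low and high levels; retro-orbital plasma taken under isoflurane on days 7, 14 and 28 after 16-20 h fast. Polar and non-polar fractions profiled by GC-MS (derivatised) and LC-MS/MS (MRM plus full scan), normalised to pool samples; Welch t-test by sex and day gives p-values and median ratios.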
# [1] = male rats, mh7 (study day 7), Table 4
# [2] = male rats, mh14 (study day 14), Table 4
# [3] = male rats, mh28 (study day 28), Table 4
# [4] = female rats, fh7 (study day 7), Table 3
# [5] = female rats, fh14 (study day 14), Table 3
# [6] = female rats, fh28 (study day 28), Table 3
structure (smiles),measurement,setting,value
Cc1cccc(C)c1N(Cn1cccn1)C(=O)CCl [Metazachlor],Behenic acid (C22:0),[1],1.92
same,Cholesterol,[1],1.71
same,Citrate,[1],0.99
same,Cytosine,[1],0.64
same,"Galactose, lipid fraction",[1],1.81
same,Glycerol phosphate,[1],1.63
same,Glycine,[1],1.12
same,Lignoceric acid (C24:0),[1],1.60
same,Mannose,[1],1.22
same,Nervonic acid C24:(cis[15]1),[1],3.17
same,"Phospha-tidylcholine (C18:0, 18:2)",[1],1.40
same,"Sphingomyelin (d18:1, C16:0)",[1],2.54
same,Stearic acid (C18:0),[1],1.45
same,Threonic acid,[1],1.16
same,"dihomo-gamma-Linolenic acis (C20:cis[8,11,14]3)",[1],2.41
same,erythro-Sphingosine,[1],2.31
same,myo-Inositol-2-phosphate,[1],2.17
same,threo-Sphingosine,[1],2.05
same,Behenic acid (C22:0),[2],2.47
same,Cholesterol,[2],2.15
same,Citrate,[2],0.94
same,Cytosine,[2],0.75
same,"Galactose, lipid fraction",[2],2.27
same,Glycerol phosphate,[2],2.20
same,Glycine,[2],1.10
same,Lignoceric acid (C24:0),[2],2.38
same,Mannose,[2],1.37
same,Nervonic acid C24:(cis[15]1),[2],4.00
same,"Phospha-tidylcholine (C18:0, 18:2)",[2],1.55
same,"Sphingomyelin (d18:1, C16:0)",[2],2.36
same,Stearic acid (C18:0),[2],2.36
same,Threonic acid,[2],1.25
same,"dihomo-gamma-Linolenic acis (C20:cis[8,11,14]3)",[2],5.18
same,erythro-Sphingosine,[2],3.47
same,myo-Inositol-2-phosphate,[2],4.01
same,threo-Sphingosine,[2],3.22
same,Behenic acid (C22:0),[3],2.05
same,Cholesterol,[3],2.43
same,Citrate,[3],1.08
same,Cytosine,[3],0.66
same,"Galactose, lipid fraction",[3],2.57
same,Glycerol phosphate,[3],2.36
same,Glycine,[3],1.26
same,Lignoceric acid (C24:0),[3],2.11
same,Mannose,[3],1.46
same,Nervonic acid C24:(cis[15]1),[3],3.63
same,"Phospha-tidylcholine (C18:0, 18:2)",[3],1.51
same,"Sphingomyelin (d18:1, C16:0)",[3],2.32
same,Stearic acid (C18:0),[3],2.59
same,Threonic acid,[3],1.36
same,"dihomo-gamma-Linolenic acis (C20:cis[8,11,14]3)",[3],3.36
same,erythro-Sphingosine,[3],3.68
same,myo-Inositol-2-phosphate,[3],2.79
same,threo-Sphingosine,[3],3.54
CCC(CC)Nc1c([N+](=O)[O-])cc(C)c(C)c1[N+](=O)[O-] [Pendimethalin],"Arachidonic acid (C20:cis[58,11,14]4)",[4],2.07
same,Behenic acid (C22:0),[4],2.05
same,Cholesterol,[4],2.09
same,Cysteine,[4],0.52
same,"Docosahexaenoic acid (C22:cis[4,7,10,13,16,19]6)",[4],1.85
same,Dodecanol,[4],1.24
same,Eicosanoic acid (C20:0),[4],1.52
same,Glycerol phosphate,[4],1.91
same,Heptadecanoic acid (C17:0),[4],1.35
same,"Linoleic acid (C18:cis[9,12]2)",[4],1.38
same,Nervonic acid C24:(cis[15]1),[4],3.51
same,Palmitic acid (C16:0),[4],1.49
same,"Sphingomyelin (d18:1, C16:0)",[4],2.01
same,Stearic acid (C18:0),[4],1.86
same,Threonic acid,[4],1.85
same,"dihomo-gamma-Linolenic acid (C20:cis[8,11,14]3)",[4],1.77
same,erythro-Sphingosine,[4],3.26
same,"gamma-Linolenic acid (C18:cis[6,9,12]3)",[4],1.61
same,myo-Inositol-2-phosphate,[4],2.82
same,threo-Sphingosine,[4],2.95
same,"Arachidonic acid (C20:cis[58,11,14]4)",[5],2.24
same,Behenic acid (C22:0),[5],1.89
same,Cholesterol,[5],2.17
same,Cysteine,[5],0.56
same,"Docosahexaenoic acid (C22:cis[4,7,10,13,16,19]6)",[5],1.82
same,Dodecanol,[5],1.31
same,Eicosanoic acid (C20:0),[5],1.82
same,Glycerol phosphate,[5],1.93
same,Heptadecanoic acid (C17:0),[5],1.56
same,"Linoleic acid (C18:cis[9,12]2)",[5],1.63
same,Nervonic acid C24:(cis[15]1),[5],2.62
same,Palmitic acid (C16:0),[5],1.81
same,"Sphingomyelin (d18:1, C16:0)",[5],1.64
same,Stearic acid (C18:0),[5],1.97
same,Threonic acid,[5],1.79
same,"dihomo-gamma-Linolenic acid (C20:cis[8,11,14]3)",[5],3.05
same,erythro-Sphingosine,[5],2.60
same,"gamma-Linolenic acid (C18:cis[6,9,12]3)",[5],2.29
same,myo-Inositol-2-phosphate,[5],2.74
same,threo-Sphingosine,[5],2.67
same,"Arachidonic acid (C20:cis[58,11,14]4)",[6],2.31
same,Behenic acid (C22:0),[6],1.94
same,Cholesterol,[6],2.44
same,Cysteine,[6],0.95
same,"Docosahexaenoic acid (C22:cis[4,7,10,13,16,19]6)",[6],1.85
same,Dodecanol,[6],1.31
same,Eicosanoic acid (C20:0),[6],1.61
same,Glycerol phosphate,[6],2.06
same,Heptadecanoic acid (C17:0),[6],1.63
same,"Linoleic acid (C18:cis[9,12]2)",[6],1.36
same,Nervonic acid C24:(cis[15]1),[6],2.54
same,Palmitic acid (C16:0),[6],1.67
same,"Sphingomyelin (d18:1, C16:0)",[6],1.58
same,Stearic acid (C18:0),[6],2.12
same,Threonic acid,[6],2.05
same,"dihomo-gamma-Linolenic acid (C20:cis[8,11,14]3)",[6],2.43
same,erythro-Sphingosine,[6],2.81
same,"gamma-Linolenic acid (C18:cis[6,9,12]3)",[6],2.57
same,myo-Inositol-2-phosphate,[6],2.66
same,threo-Sphingosine,[6],2.49
same,Behenic acid (C22:0),[1],1.94
same,Cholesterol,[1],1.67
same,Citrate,[1],0.86
same,Cytosine,[1],0.79
same,"Galactose, lipid fraction",[1],1.81
same,Glycerol phosphate,[1],2.06
same,Glycine,[1],1.11
same,Lignoceric acid (C24:0),[1],2.32
same,Mannose,[1],1.31
same,Nervonic acid C24:(cis[15]1),[1],2.90
same,"Phospha-tidylcholine (C18:0, 18:2)",[1],1.26
same,"Sphingomyelin (d18:1, C16:0)",[1],2.10
same,Stearic acid (C18:0),[1],1.64
same,Threonic acid,[1],1.39
same,"dihomo-gamma-Linolenic acis (C20:cis[8,11,14]3)",[1],2.92
same,erythro-Sphingosine,[1],2.78
same,myo-Inositol-2-phosphate,[1],3.25
same,threo-Sphingosine,[1],2.96
same,Behenic acid (C22:0),[2],1.90
same,Cholesterol,[2],2.03
same,Citrate,[2],0.83
same,Cytosine,[2],0.92
same,"Galactose, lipid fraction",[2],2.03
same,Glycerol phosphate,[2],2.38
same,Glycine,[2],1.15
same,Lignoceric acid (C24:0),[2],2.93
same,Mannose,[2],1.39
same,Nervonic acid C24:(cis[15]1),[2],2.99
same,"Phospha-tidylcholine (C18:0, 18:2)",[2],1.25
same,"Sphingomyelin (d18:1, C16:0)",[2],1.97
same,Stearic acid (C18:0),[2],2.28
same,Threonic acid,[2],1.47
same,"dihomo-gamma-Linolenic acis (C20:cis[8,11,14]3)",[2],3.53
same,erythro-Sphingosine,[2],3.33
same,myo-Inositol-2-phosphate,[2],3.57
same,threo-Sphingosine,[2],3.52
same,Behenic acid (C22:0),[3],1.79
same,Cholesterol,[3],2.29
same,Citrate,[3],0.87
same,Cytosine,[3],0.81
same,"Galactose, lipid fraction",[3],2.23
same,Glycerol phosphate,[3],2.34
same,Glycine,[3],1.32
same,Lignoceric acid (C24:0),[3],2.42
same,Mannose,[3],1.40
same,Nervonic acid C24:(cis[15]1),[3],3.07
same,"Phospha-tidylcholine (C18:0, 18:2)",[3],1.32
same,"Sphingomyelin (d18:1, C16:0)",[3],2.03
same,Stearic acid (C18:0),[3],2.12
same,Threonic acid,[3],1.85
same,"dihomo-gamma-Linolenic acis (C20:cis[8,11,14]3)",[3],2.76
same,erythro-Sphingosine,[3],2.69
same,myo-Inositol-2-phosphate,[3],2.79
same,threo-Sphingosine,[3],2.73
